US20230159453A1 (COCRYSTAL PHARMA, INC., priority 2020, published 2023)
“And” between values parts separate entries of the source, which are not always exact repeats. Identical values can stand only once.

These molecules were tested against SARS2 protease (Severe acute respiratory syndrome coronavirus 2, UniProt P0DTD1) (assay: SARS-CoV-2 protease inhibition assay (SARS2 FRET protease assay)). Details: SARS-CoV-2 protease 25 nM, FRET, peptide substrate 1.3 μM, 30 minutes at 30° C., compounds 20 μM to 1.0 nM; read-out: IC50.
Type: biochemical
For `CCOP(=O)(OCC)C(O)C(CC1CC2(CCN(C(C)=O)CC2)NC1=O)NC(=O)C(CC(C)C)NC(=O)OCc1cccc(Cl)c1` (stereo in doubt) [Compound C69, 3-Chlorobenzyl ((2R)-1-((3-(8-acetyl-2-oxo-1,8-diazaspiro[4.5]decan-3-yl)-1-(diethoxyphosphoryl)-1-hydroxypropan-2-yl)amino)-4-methyl-1-oxopentan-2-yl)carbamate], the IC50 was 26800 nM. `CC(C)C[C@H](NC(=O)OC(c1ccc(F)cc1)C(C)(C)c1cccc(Cl)c1)C(=O)N[C@H](C=O)C[C@@H]1CCNC1=O` (stereo partly drawn) [Compound C238, 2-(3-chlorophenyl)-1-(4-fluorophenyl)-2-methylpropyl ((S)-4-methyl-1-oxo-1-(((S)-1-oxo-3-((S)-2-oxopyrrolidin-3-yl)propan-2-yl)amino)pentan-2-yl)carbamate] was tested, and the IC50 was 0.1 nM. With `CC(C)(c1cccc(Cl)c1)C(OC(=O)N[C@@H](CC1CCCCC1)C(=O)N[C@H](C=O)C[C@@H]1CCNC1=O)c1ccccc1` (stereo partly drawn) [Compound C110, 2-(3-Chlorophenyl)-2-methyl-1-phenylpropyl ((S)-3-cyclohexyl-1-oxo-1-(((S)-1-oxo-3-((S)-2-oxopyrrolidin-3-yl)propan-2-yl)amino)propan-2-yl) carbamate] the IC50 was 1.4 nM. With `CC(C)(c1cccc(Cl)c1)C(OC(=O)N[C@@H](CC1CCCCC1)C(=O)N[C@@H](C[C@@H]1CCNC1=O)C(=O)C(=O)NC1CC1)c1ccc(F)cc1` (stereo partly drawn) [Compound C144, 2-(3-Chlorophenyl)-1-(4-fluorophenyl)-2-methylpropyl ((S)-3-cyclohexyl-1-(((S)-4-(cyclopropylamino)-3,4-dioxo-1-((S)-2-oxopyrrolidin-3-yl)butan-2-yl)amino)-1-oxopropan-2-yl) carbamate] the IC50 was 2020 nM. Molecule `CC(C)C[C@H](NC(=O)OC1CCN(C(=O)OC(C)(C)C)c2ccccc21)C(=O)N[C@@H](C[C@@H]1CCNC1=O)C(=O)C(=O)NCc1ccccn1` (stereo partly drawn) [Compound C86, Tert-butyl 4-((((S)-1-(((S)-3,4-dioxo-1-((S)-2-oxopyrrolidin-3-yl)-4-((pyridin-2-ylmethyl)amino)butan-2-yl)amino)-4-methyl-1-oxopentan-2-yl)carbamoyl)oxy)-3,4-dihydroquinoline-1(2H)-carboxylate] has an IC50 of 900 nM. Molecule `O=C(N[C@@H](CC1CCCCC1)C(=O)NC(CC1CC2(CCCCC2)NC1=O)C(=O)C(=O)NC1CC1)OC(Cc1cccc(Cl)c1)c1ccccc1` (stereo partly drawn) [Compound C153, 2-(3-Chlorophenyl)-1-phenylethyl ((2S)-3-cyclohexyl-1-((4-(cyclopropylamino)-3,4-dioxo-1-(2-oxo-1-azaspiro[4.5]decan-3-yl)butan-2-yl)amino)-1-oxopropan-2-yl)carbamate] has an IC50 of over 20000 nM. With `CC(C)(C)C(OC(=O)N[C@@H](CC1CCCCC1)C(=O)N[C@@H](C[C@@H]1CCNC1=O)C(=O)C(N)=O)c1ccccc1` (stereo partly drawn) [Compound C231, 2,2-Dimethyl-1-phenylpropyl ((S)-1-(((S)-4-amino-3,4-dioxo-1-((S)-2-oxopyrrolidin-3-yl)butan-2-yl)amino)-3-cyclohexyl-1-oxopropan-2-yl) carbamate] the IC50 was 1800 nM. `CC(C)C[C@H](NC(=O)OC(Cc1ccccc1)c1ccccc1)C(=O)N[C@@H](C[C@@H]1CCNC1=O)C(=O)C(=O)N1CCN(C(=O)OC(C)(C)C)CC1` (stereo partly drawn) [Compound C280] showed an IC50 of over 20000 nM. `CC(C)(COC(=O)N[C@H](C(=O)N[C@H](C=O)C[C@@H]1CCNC1=O)C(C)(C)C)c1cccc(Cl)c1` [Compound C103, 2-(3-Chlorophenyl)-2-methylpropyl ((S)-3,3-dimethyl-1-oxo-1-(((S)-1-oxo-3-((S)-2-oxopyrrolidin-3-yl)propan-2-yl)amino)butan-2-yl)carbamate] was tested, and the IC50 was 736 nM. `CCNC(=O)C(=O)[C@H](C[C@@H]1CCNC1=O)NC(=O)[C@H](CC1CCCCC1)NC(=O)OC(c1ccccc1)C(C)(C)c1cccc(Cl)c1` (stereo partly drawn) [Compound C211, 2-(3-Chlorophenyl)-2-methyl-1-phenylpropyl ((S)-3-cyclohexyl-1-(((S)-4-(ethylamino)-3,4-dioxo-1-((S)-2-oxopyrrolidin-3-yl)butan-2-yl)amino)-1-oxopropan-2-yl) carbamate] gave an IC50 of 339 nM. In the case of `O=C(N[C@@H](CC1CCCCC1)C(=O)N[C@@H](C[C@@H]1CCNC1=O)C(O)S(=O)(=O)O)OC(Cc1cccc(Cl)c1)c1ccccc1` (stereo partly drawn) [Compound C115, Sodium (2S)-2-((2S)-2-(((2-(3-chlorophenyl)-1-phenylethoxy)carbonyl)amino)-3-cyclohexylpropanamido)-1-hydroxy-3-((S)-2-oxopyrrolidin-3-yl)propane-1-sulfonate], the IC50 is reported as 15.7 nM. In the case of `CC(C)C[C@H](NC(=O)O[C@H](c1cccc(F)c1)C(C)(C)c1cccc(Cl)c1)C(=O)N[C@H](C=O)C[C@@H]1CCNC1=O` [Compound C269], the IC50 is reported as 70 nM. `CCOP(=O)(OCC)C(O)[C@H](CC1CCNC1=O)NC(=O)[C@H](Cc1ccccc1)NC(=O)OCc1cccc(Cl)c1` (stereo partly drawn) [Compound C36] showed an IC50 of 2500 nM. With `COc1cccc2[nH]c(C(=O)N[C@@H](CC3CCCCC3)C(=O)NC(CC3CC4(CCOCC4)NC3=O)C(=O)C(=O)NC3CC3)cc12` (stereo partly drawn) [Compound C191, N-((2S)-3-Cyclohexyl-1-((4-(cyclopropylamino)-3,4-dioxo-1-(2-oxo-8-oxa-1-azaspiro[4.5]decan-3-yl)butan-2-yl)amino)-1-oxopropan-2-yl)-4-methoxy-1H-indole-2-carboxamide] the IC50 was 305 nM. Molecule `CCOP(=O)(OCC)C(O)C(CC1CC(Cc2ccccc2)NC1=O)NC(=O)[C@H](CC1CCCCC1)NC(=O)OCc1cccc(Cl)c1` (stereo partly drawn) [Compound C41, 3-Chlorobenzyl ((2S)-1-((3-(5-benzyl-2-oxopyrrolidin-3-yl)-1-(diethoxyphosphoryl)-1-hydroxypropan-2-yl)amino)-3-cyclohexyl-1-oxopropan-2-yl)carbamate] has an IC50 of 308 nM. `O=C[C@H](CCC(=O)N1CCOc2ccc(Cl)cc2C1)NC(=O)[C@H](CC1CCCCC1)NC(=O)OCc1cccc(Cl)c1` [Compound C15, 3-Chlorobenzyl ((S)-1-(((S)-5-(7-chloro-2,3-dihydrobenzo[f][1,4]oxazepin-4(5H)-yl)-1,5-dioxopentan-2-yl)amino)-3-cyclohexyl-1-oxopropan-2-yl)carbamate] gave an IC50 of over 200000 nM. With `CC(C)C[C@H](NC(=O)OC1(Cc2cccc(Cl)c2)CCC1)C(=O)NC(C=O)CC1CC2(CCOCC2)NC1=O` (stereo partly drawn) [Compound C204] the IC50 was 224 nM. For `CC(C)C[C@H](NC(=O)OC(Cc1ccccc1)C1CCCCC1)C(=O)N[C@H](C=O)C[C@@H]1CCNC1=O` (stereo partly drawn) [Compound C237, 1-Cyclohexyl-2-phenylethyl ((S)-4-methyl-1-oxo-1-(((S)-1-oxo-3-((S)-2-oxopyrrolidin-3-yl)propan-2-yl)amino)pentan-2-yl)carbamate], the IC50 was 3 nM. For `CC(C)C[C@H](NC(=O)OC(c1ccccc1)C(C)(C)c1cccc(Cl)c1)C(=O)N[C@@H](C[C@@H]1CCNC1=O)C(=O)C(=O)NC1CC1` (stereo partly drawn) [Compound C166, 2-(3-Chlorophenyl)-2-methyl-1-phenylpropyl ((S)-1-(((S)-4-(cyclopropylamino)-3,4-dioxo-1-((S)-2-oxopyrrolidin-3-yl)butan-2-yl)amino)-4-methyl-1-oxopentan-2-yl)carbamate], the IC50 was 14 nM. `CC1(C)CC(CC(NC(=O)[C@H](CC2CCCCC2)NC(=O)OC(c2cccc(Cl)c2)C(C)(C)c2cccc(Cl)c2)C(=O)C(=O)NC2CC2)C(=O)N1` (stereo partly drawn) [Compound C281] gave an IC50 of 2480 nM. In the case of `O=C(N[C@@H](CC1CCCCC1)C(=O)NC(CC1CC2(CCCCC2)NC1=O)C(=O)C(=O)NC1CC1)OC(Cc1cccc(Cl)c1)c1cccc(Cl)c1` (stereo partly drawn) [Compound C195, 1,2-Bis(3-chlorophenyl)ethyl ((2S)-3-cyclohexyl-1-((4-(cyclopropylamino)-3,4-dioxo-1-(2-oxo-1-azaspiro[4.5]decan-3-yl)butan-2-yl)amino)-1-oxopropan-2-yl)carbamate], the IC50 is reported as 2010 nM. Molecule `CC(C)C[C@H](NC(=O)OC1(Cc2ccccc2)CCC1)C(=O)N[C@@H](C[C@@H]1CCNC1=O)C(O)S(=O)(=O)O` (stereo partly drawn) [Compound C63, (2S)-2-((S)-2-(((1-Benzylcyclobutoxy)carbonyl)amino)-4-methylpentanamido)-1-hydroxy-3-((S)-2-oxopyrrolidin-3-yl)propane-1-sulfonate] has an IC50 of 1600 nM. For `CC(C)C[C@H](NC(=O)OC(Cc1cccc(Cl)c1)c1ccccc1)C(=O)N[C@@H](C[C@@H]1CCNC1=O)C(O)S(=O)(=O)O` (stereo partly drawn) [Compound C114, Sodium (2S)-2-((2S)-2-(((2-(3-chlorophenyl)-1-phenylethoxy)carbonyl)amino)-4-methylpentanamido)-1-hydroxy-3-((S)-2-oxopyrrolidin-3-yl) propane-1-sulfonate], the IC50 was 11.1 nM. `CC(C)C[C@H](NC(=O)OC(Cc1ccccc1)c1ccccc1)C(=O)N[C@@H](C[C@@H]1CCNC1=O)C(O)S(=O)(=O)O` (stereo partly drawn) [Compound C53, (2S)-2-((2S)-2-(((1,2-Diphenylethoxy)carbonyl)amino)-4-methylpentanamido)-1-hydroxy-3-((S)-2-oxopyrrolidin-3-yl)propane-1-sulfonate] gave an IC50 of 40 nM. `CC(C)C[C@H](NC(=O)N(Cc1ccccc1)C1CCN(C(=O)OC(C)(C)C)CC1)C(=O)N[C@H](C=O)C[C@@H]1CCNC1=O` [Compound C37, Tert-butyl 4-(1-benzyl-3-((S)-4-methyl-1-oxo-1-(((S)-1-oxo-3-((S)-2-oxopyrrolidin-3-yl)propan-2-yl)amino)pentan-2-yl)ureido)piperidine-1-carboxylate] was tested, and the IC50 was 137 nM and 262 nM. In the case of `CCOP(=O)(OCC)C(O)[C@H](CCC(=O)N1CCOc2ccccc2C1)NC(=O)[C@H](CC1CCCCC1)NC(=O)OC1CCN(S(C)(=O)=O)CC1` (stereo partly drawn) [Compound C28, 1-(Methylsulfonyl) piperidin-4-yl((2S)-3-cyclohexyl-1-(((2S)-1-(diethoxyphosphoryl)-5-(2,3-dihydrobenzo[f][1,4]oxazepin-4(5H)-yl)-1-hydroxy-5-oxopentan-2-yl)amino)-1-oxopropan-2-yl)carbamate], the IC50 is reported as over 200000 nM. `CC(C)C[C@H](NC(=O)OC(c1ccccc1)C(C)(C)c1cccc(Cl)c1)C(=O)N[C@@H](C[C@@H]1CCNC1=O)C(=O)C(=O)N1CCNCC1` (stereo partly drawn) [Compound C274] gave an IC50 of 12000 nM.
